PubChem BioAssay AID248 (DTP/NCI, 2004)
“And” between values parts separate entries of the source, which are not always exact repeats. Equal entries are not always repeated. Toxic doses and inconclusive results are not listed. No stated cut-off is given here; in the data, active means T/C of 150% or more; inactive means T/C below 125%.

Tested on: L1210 leukemia ip in BDF1 mice, survival T/C
Assay: NCI In Vivo Anticancer Drug Screen. Data for tumor model L1210 Leukemia (intraperitoneal) in B6D2F1 (BDF1) mice
Conditions: endpoint: mean survival time, higher = longer survival
Procedure, shortened: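 Survival endpoint. Drug-treated group vs vehicle group, expressed as T divided by C. Tumor passaged by transplantation.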

[1] = dose: 75.0 mg/kg/injection, schedule: Q01DX001 (ip), vehicle: saline
[2] = dose: 150.0 mg/kg/injection, schedule: Q01DX001 (ip), vehicle: saline
[3] = dose: 300.0 mg/kg/injection, schedule: Q01DX001 (ip), vehicle: saline
[4] = dose: 100.0 mg/kg/injection, schedule: Q04DX003 (ip), vehicle: saline with Tween-80
[5] = dose: 100.0 mg/kg/injection, schedule: Q01DX001 (ip), vehicle: saline
[6] = dose: 200.0 mg/kg/injection, schedule: Q01DX001 (ip), vehicle: saline
[7] = dose: 400.0 mg/kg/injection, schedule: Q01DX001 (ip), vehicle: saline
[8] = dose: 50.0 mg/kg/injection, schedule: Q01DX009 (ip), vehicle: saline with Tween-80
[9] = dose: 100.0 mg/kg/injection, schedule: Q01DX009 (ip), vehicle: saline with Tween-80
[10] = dose: 100.0 mg/kg/injection, schedule: Q01DX009 (ip), vehicle: Klucel (hydroxypropylcellulose) (HPC)
[11] = dose: 200.0 mg/kg/injection, schedule: Q01DX009 (ip), vehicle: Klucel (hydroxypropylcellulose) (HPC)
[12] = dose: 100.0 mg/kg/injection, schedule: Q04DX002 (ip), vehicle: saline
[13] = dose: 200.0 mg/kg/injection, schedule: Q04DX002 (ip), vehicle: saline
[14] = dose: 400.0 mg/kg/injection, schedule: Q04DX002 (ip), vehicle: saline
[15] = dose: 200.0 mg/kg/injection, schedule: Q01DX001 (ip), vehicle: Klucel (hydroxypropylcellulose) (HPC)
[16] = dose: 50.0 mg/kg/injection, schedule: Q04DX002 (ip), vehicle: Klucel (hydroxypropylcellulose) (HPC)
[17] = dose: 100.0 mg/kg/injection, schedule: Q04DX002 (ip), vehicle: Klucel (hydroxypropylcellulose) (HPC)

Measured: T/C

O=C1NC2(C=CCCC2)C(O)(c2ccccc2)C12CCCCC2 (centres undefined)
inactive: [1] 95 % of control | [2] 86 % of control | [3] 89 % of control

O=C1OC(=O)C2C3CC(C(Br)C3Br)C12 (centres undefined)
inactive: [4] 102 % of control | dose: 200.0 mg/kg/injection, schedule: Q04DX003 (ip), vehicle: saline with Tween-80 98 % of control | dose: 400.0 mg/kg/injection, schedule: Q04DX003 (ip), vehicle: saline with Tween-80 101 % of control

Cc1scc[n+]1C
inactive: [1] 104 % of control | [2] 102 % of control | [3] 107 % of control

C=C(Br)CNC(=O)C(C(F)(F)F)C(F)(F)F
inactive: dose: 12.5 mg/kg/injection, schedule: Q01DX009 (ip), vehicle: Klucel (hydroxypropylcellulose) (HPC) 95 % of control | dose: 12.5 mg/kg/injection, schedule: Q04DX003 (ip), vehicle: Klucel (hydroxypropylcellulose) (HPC) 96 % of control | dose: 25.0 mg/kg/injection, schedule: Q01DX009 (ip), vehicle: Klucel (hydroxypropylcellulose) (HPC) 97 % of control | dose: 25.0 mg/kg/injection, schedule: Q04DX003 (ip), vehicle: Klucel (hydroxypropylcellulose) (HPC) 98 % of control | dose: 50.0 mg/kg/injection, schedule: Q01DX009 (ip), vehicle: Klucel (hydroxypropylcellulose) (HPC) 95 % of control | dose: 50.0 mg/kg/injection, schedule: Q04DX003 (ip), vehicle: Klucel (hydroxypropylcellulose) (HPC) 96 % of control

C/C(=N\Nc1cccc(N)c1)c1ccccc1
inactive: dose: 25.6 mg/kg/injection, schedule: Q04DX002 (ip), vehicle: saline with Tween-80 89 % of control | dose: 64.0 mg/kg/injection, schedule: Q04DX002 (ip), vehicle: saline with Tween-80 89 % of control

C(=N\N1CCN(/N=C/c2ccc3c(c2)OCO3)CC1)/c1ccc2c(c1)OCO2
inactive: [5] 104 % of control | [6] 102 % of control | [7] 96 % of control

c1cc(C2OCCO2)cs1
inactive: [8] 86 % of control | [9] 86 % of control

Cn1c(CC(O)(C(F)(F)F)C(F)(F)F)c(C(O)(C(F)(F)F)C(F)(F)F)c2ccccc21
inactive: dose: 5.0 mg/kg/injection, schedule: Q01DX009 (ip), vehicle: saline with Tween-80 100 % of control | dose: 10.0 mg/kg/injection, schedule: Q01DX009 (ip), vehicle: saline with Tween-80 94 % of control

COC(=O)c1cc(NC(=O)Nc2cccc(C(C)=O)c2)cc(C(=O)OC)c1
inactive: [10] 98 % of control | [11] 102 % of control | dose: 400.0 mg/kg/injection, schedule: Q01DX009 (ip), vehicle: Klucel (hydroxypropylcellulose) (HPC) 93 % of control

O=[N+]([O-])c1ccc(C=Nc2ccc3c(c2)C(Br)c2ccccc2-3)cc1 (centres undefined)
inactive: dose: 100.0 mg/kg/injection, schedule: Q01DX Z (ip), vehicle: saline 91 % of control | dose: 200.0 mg/kg/injection, schedule: Q01DX Z (ip), vehicle: saline 90 % of control | dose: 400.0 mg/kg/injection, schedule: Q01DX Z (ip), vehicle: saline 95 % of control

CCC1([N+](=O)[O-])COP(=O)(OP2(=O)OCC(CC)([N+](=O)[O-])CO2)OC1 (centres undefined)
inactive: [5] 116 % of control | [6] 97 % of control | [7] 100 % of control

COc1ccc(NC(C)=O)cc1OC
inactive: [12] 95 % of control | [13] 98 % of control | [14] 92 % of control

O=C(Nc1cccc(Cl)c1)Oc1ccc(Cl)cc1Cl
inactive: dose: 100.0 mg/kg/injection, schedule: Q04DX002 (ip), vehicle: saline with Tween-80 96 % of control | dose: 200.0 mg/kg/injection, schedule: Q04DX002 (ip), vehicle: saline with Tween-80 100 % of control

NC(=O)n1ccc(CC(O)(C(F)(F)F)C(F)(F)F)n1
inactive: dose: 100.0 mg/kg/injection, schedule: Q01DX001 (ip), vehicle: saline with Tween-80 96 % of control | dose: 200.0 mg/kg/injection, schedule: Q01DX001 (ip), vehicle: saline with Tween-80 96 % of control | dose: 400.0 mg/kg/injection, schedule: Q01DX001 (ip), vehicle: saline with Tween-80 96 % of control

O=c1cc(NCc2cccc3ccc(Cl)cc23)[nH]c(=O)[nH]1
inactive: dose: 50.0 mg/kg/injection, schedule: Q01DX001 (ip), vehicle: Klucel (hydroxypropylcellulose) (HPC) 92 % of control | dose: 100.0 mg/kg/injection, schedule: Q01DX001 (ip), vehicle: Klucel (hydroxypropylcellulose) (HPC) 88 % of control | [15] 87 % of control

CCCCCOC(c1ccc2c(c1)OCO2)C(C)Br (centres undefined)
inactive: [12] 96 % of control | [13] 104 % of control | [14] 90 % of control

N#CC(C(N)=O)c1ccccc1 (centres undefined)
inactive: dose: 25.0 mg/kg/injection, schedule: Q01DX009 (ip), vehicle: saline with Tween-80 86 % of control | dose: 25.0 mg/kg/injection, schedule: Q04DX003 (ip), vehicle: saline with Tween-80 99 % of control | [8] 94 % of control | dose: 50.0 mg/kg/injection, schedule: Q04DX003 (ip), vehicle: saline with Tween-80 100 % of control | [9] 90 % of control | [4] 98 % of control and 100 % of control

CC1SC(=S)N(c2ccc(Cl)cc2)C1=O (centres undefined)
inactive: [10] 115 % of control | dose: 100.0 mg/kg/injection, schedule: Q04DX003 (ip), vehicle: Klucel (hydroxypropylcellulose) (HPC) 98 % of control | [11] 110 % of control | dose: 200.0 mg/kg/injection, schedule: Q04DX003 (ip), vehicle: Klucel (hydroxypropylcellulose) (HPC) 106 % of control

CCCCCCCCCCCCCCCCCC(=O)N/N=C/c1ccccc1
inactive: dose: 100.0 mg/kg/injection, schedule: Q01DX009 (ip), vehicle: other 91 % of control | dose: 200.0 mg/kg/injection, schedule: Q01DX009 (ip), vehicle: other 89 % of control | dose: 400.0 mg/kg/injection, schedule: Q01DX009 (ip), vehicle: other 105 % of control

CCOc1ccc(N)c(O)c1
inactive: dose: 75.0 mg/kg/injection, schedule: Q01DX001 (ip), vehicle: carboxymethylcellulose (CMC) 98 % of control and 102 % of control | dose: 150.0 mg/kg/injection, schedule: Q01DX001 (ip), vehicle: carboxymethylcellulose (CMC) 93 % of control

COc1cc(-c2ccc(N)c(OC)c2)ccc1N
inactive: dose: 62.5 mg/kg/injection, schedule: Q01DX Z (ip), vehicle: saline 90 % of control | dose: 222.0 mg/kg/injection, schedule: Q01DX Z (ip), vehicle: methylcellulose (MC) 108 % of control | dose: 333.0 mg/kg/injection, schedule: Q01DX Z (ip), vehicle: methylcellulose (MC) 90 % of control

COc1ccc2c(c1)CSC(c1ccccc1)=C2
inactive: dose: 25.0 mg/kg/injection, schedule: Q04DX002 (ip), vehicle: Klucel (hydroxypropylcellulose) (HPC) 98 % of control | [16] 120 % of control | [17] 98 % of control

CC1C(c2ccccc2)OCCN1C (centres undefined)
inactive: dose: 50.0 mg/kg/injection, schedule: Q04DX003 (ip), vehicle: saline 108 % of control | [5] 93 % of control | dose: 100.0 mg/kg/injection, schedule: Q04DX003 (ip), vehicle: saline 108 % of control | [6] 104 % of control | dose: 200.0 mg/kg/injection, schedule: Q04DX003 (ip), vehicle: saline 104 % of control

Cc1ccc(-n2c(O)c(N=Nc3ccc(Cl)cc3)c(=O)n(-c3ccccc3)c2=S)cc1
inactive: dose: 37.5 mg/kg/injection, schedule: Q01DX001 (ip), vehicle: Klucel (hydroxypropylcellulose) (HPC) 96 % of control | dose: 75.0 mg/kg/injection, schedule: Q01DX001 (ip), vehicle: Klucel (hydroxypropylcellulose) (HPC) 92 % of control | dose: 150.0 mg/kg/injection, schedule: Q01DX001 (ip), vehicle: Klucel (hydroxypropylcellulose) (HPC) 102 % of control

Cc1ccc2c(c1)[n+]([O-])c1nc(N)nc(N)c1[n+]2[O-]
inactive: [16] 93 % of control | dose: 53.0 mg/kg/injection, schedule: Q01DX001 (ip), vehicle: Klucel (hydroxypropylcellulose) (HPC) 97 % of control | dose: 88.0 mg/kg/injection, schedule: Q01DX001 (ip), vehicle: Klucel (hydroxypropylcellulose) (HPC) 96 % of control | [17] 102 % of control and 104 % of control | dose: 133.0 mg/kg/injection, schedule: Q01DX001 (ip), vehicle: Klucel (hydroxypropylcellulose) (HPC) 91 % of control | [15] 97 % of control | dose: 300.0 mg/kg/injection, schedule: Q01DX001 (ip), vehicle: Klucel (hydroxypropylcellulose) (HPC) 104 % of control | dose: 400.0 mg/kg/injection, schedule: Q04DX002 (ip), vehicle: Klucel (hydroxypropylcellulose) (HPC) 98 % of control and 119 % of control
